Results as given in US10487071B2, “Bis-triazole compounds with anti-biofilm and anti-corrosion properties” (Université de Toulon, priority 2015, dated 2019).
Where two headings read alike, the source gives them in different places.

How the values were obtained:
[1] = test system: marine bacterial strains (TC14, TC8, 4M6, TC5 and TC11); assay: Toxicity test, summary over the strains; assay type: cell-based; settings: comparison with reference biocides
Excerpt: (§1) In examples 64 and 65, the following marine bacterial strains are used.

[2] = test system: Paracoccus sp. (4M6); assay: Anti-adhesion test, strain 4M6; assay type: cell-based; settings: Paracoccus; for activity at 200 µM: 15 h, read-out: % of adhesion at 200 μM, 4M6; for EC50: read-out: EC50 (effective concentration to inhibit 50% of the adhesion), 4M6
Method in brief: (§2)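 Stationary-phase bacteria grown in VNSS, diluted in artificial sea water and incubated about 15 h with compound at eight concentrations in triplicate, DMSO up to 2%. Adhered cells stained with SYTO 61 (1 μM). EC50 from a sigmoid fit of % inhibition against log concentration.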

[3] = test system: Shewanella sp. (TC11); assay: Toxicity test, strain TC11; assay type: cell-based
Excerpt: (§3) Shewanella sp. (TC11) was isolated in June 2010 in the Military Harbor of Toulon (Mediterranean Sea, France) as described in F. Brian-Jaisson, A. Ortalo-Magné, L. Guentas-Dombrowsky, F. Armougom, Y. Blache, M. Molmeret, Microb. Ecol., 2014, 68, 94-110.

[4] = test system: Pseudoalteromonas ulvae (TC14); assay: Anti-adhesion test, strain TC14; assay type: cell-based; settings: Pseudoalteromonas ulvae; for activity at 200 µM: 15 h; for EC50: read-out: EC50 (effective concentration to inhibit 50% of the adhesion)
Method in brief: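 Stationary-phase TC14 cells grown in VNSS, diluted in artificial seawater and incubated with compound at eight concentrations in triplicate (DMSO ≤2%) for about 15 h. Non-adhered bacteria removed and adhered cells quantified by SYTO 61 (1 μM) staining. EC50 derived from sigmoid fit of % inhibition versus log concentration.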

[5] = test system: Shewanella sp. (TC11); assay: Anti-adhesion test, strain TC11; assay type: cell-based; settings: for activity at 200 µM: 15 h, strain TC11, read-out: % of adhesion at 200 μM, TC11; for EC50: read-out: EC50 (effective concentration to inhibit 50% of the adhesion), strain TC11
Description: (§4) Bacterial strains were grown on Väätänen nine-salts solution (VNSS). When the stationary phase was reached, the bacterial suspension was centrifuged. Cells were then diluted in sterile artificial sea water (ASW) and introduced in microtiter plates (sterile black PS; Nunc, Fisher Scientific, France) with the tested compound (at eight concentrations in three replicates) in the presence of three controls: (i) non-specific staining control, (ii) adhesion control, and (iii) positive control. The maximum percentage of solvent (DMSO 2%) used to dilute the tested compound was also tested in triplicate as additional control. After incubation during an optimized adhesion time (moderately 15 h), non-adhered bacteria were eliminated and adhered cells were quantified after SYTO 61 (1 μM) staining. A percentage of inhibition was calculated per well. A sigmoid dose-response curve was obtained by plotting the percentage of inhibition as a function of the log of tested compound concentration, after mean (n=3) and standard deviation (SD) calculation per triplicate for each concentration. EC50 values were then calculated for each compound.
as §3

[6] = test system: Pseudoalteromonas lipolytica (TC8); assay: microbe, parasite or virus in culture; settings: for CC50: Pseudoalteromonas lipolytica, read-out: LC50 (necessary concentration to kill 50% of the bacteria), TC8; for IS: LC50/EC50 (selectivity index), TC8: strain TC8
Excerpt: (§5) The anti-adhesion bioassays and toxicity tests are adapted from those disclosed in M. Camps, J.-F. Briand, L. Guentas-Dombrowsky, G. Culioli, A. Bazire and Y. Blache, Mar. Poll.
(§6) After growth on VNSS, bacterial strains were harvested during the exponential phase. The microtiter plates (sterile transparent PS; Nunc, Fisher Scientific) were filled as described in the Anti-adhesion test method using VNSS instead of ASW to allow bacterial growth. The growth was followed by measuring the turbidity (OD600 nm) every hour during 6 or 7 hours. Then, resazurin (50 μM) was added in all the wells, and fluorescence was measured after 2 h to quantify the percent of bacterial viability. The same methodology used with SYTO 61 was applied to calculate a percent of viability after resazurin staining.

[7] = test system: Paracoccus sp. (4M6); assay: microbe, parasite or virus in culture; settings: for CC50: Paracoccus, read-out: LC50 (necessary concentration to kill 50% of the bacteria), 4M6; for IS: LC50/EC50 (selectivity index), 4M6: strain 4M6
Excerpt: as §5, §6

[8] = test system: Pseudoalteromonas lipolytica (TC8); assay: Anti-adhesion test, strain TC8; assay type: cell-based; settings: Pseudoalteromonas lipolytica; for activity at 200 µM: 15 h, read-out: % of adhesion at 200 μM, TC8; for EC50: read-out: EC50 (effective concentration to inhibit 50% of the adhesion), TC8
Method in brief: as §2

[9] = test system: marine bacterial strains (TC14, TC8, 4M6, TC5 and TC11); assay: Anti-adhesion test, summary over the strains; assay type: cell-based; settings: for EC50 compared with TBTO/ZINEB: comparison with reference biocides
Description: as §4, §1

[10] = test system: Polaribacter sp. (TC5); assay: Anti-adhesion test, strain TC5; assay type: cell-based; settings: for activity at 200 µM: 15 h; for EC50: read-out: EC50 (effective concentration to inhibit 50% of the adhesion)
Description: as §4
(§7) Polaribacter sp. (TC5) was isolated in June 2010 in the Military Harbor of Toulon (Mediterranean Sea, France) as described in F. Brian-Jaisson, A. Ortalo-Magné, L. Guentas-Dombrowsky, F. Armougom, Y. Blache, M. Molmeret, Microb. Ecol., 2014, 68, 94-110.

[11] = test system: Pseudoalteromonas ulvae (TC14); assay: Toxicity test, strain TC14; assay type: cell-based
Excerpt: Pseudoalteromonas ulvae (TC14) was isolated in June 2010 in the Military Harbor of Toulon (Mediterranean Sea, France) as described in F. Brian-Jaisson, A. Ortalo-Magné, L. Guentas-Dombrowsky, F. Armougom, Y. Blache, M. Molmeret, Microb. Ecol., 2014, 68, 94-110.

[12] = Gravimetry (weight loss), corrosion inhibition; settings: mild steel in 1N HCl
Method in brief: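 Mild steel coupons (2.5×2.0×0.1 cm) immersed in non-de-aerated 1N HCl without or with various inhibitor concentrations, then washed, dried and reweighed; duplicate runs. IE (%) calculated from corrosion rates without (CR^o) and with (CR) inhibitor.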

[13] = test system: Polaribacter sp. (TC5); assay: Toxicity test, strain TC5; assay type: cell-based; settings: for CC50: read-out: LC50 (necessary concentration to kill 50% of the bacteria)
Excerpt: as §7

[14] = read-out: inhibition of the adhesion of at least four marine bacterial strains
[15] = read-out: inhibition of the adhesion of at least two marine bacterial strains

Structure (SMILES) | toxicity by LC50 values compared with TBTO/ZINEB [1] | activity at 200 µM [2] | EC50 [2] | IS: LC50/EC50 (selectivity index), TC11 [3] | LC50 (necessary concentration to kill 50% of the bacteria), TC11 [3] | activity at 200 µM [4] | EC50 [4] | activity at 200 µM [5] | EC50 [5] | CC50 [6] | IS: LC50/EC50 (selectivity index), TC8 [6] | CC50 [7] | IS: LC50/EC50 (selectivity index), 4M6 [7] | activity at 200 µM [8] | EC50 [8] | EC50 compared with TBTO/ZINEB [9] | inhibition at 200 µM [9, 14] | inhibition at 200 µM [9, 15] | activity at 200 µM [10] | EC50 [10] | other results
CN(C)CCOc1c(Br)cc(CCn2cc(-c3ccc(-c4cn(CCc5cc(Br)c(OCCN(C)C)c(Br)c5)nn4)cc3)nn2)cc1Br [SA33, 2-(4-(2-(4-(4-(1-(4-(2-(dimethylamino)ethoxy)-3,5-dibromophenethyl)-1H-1,2,3-triazol-4-yl)phenyl)-1H-1,2,3-triazol-1-yl)ethyl)-2,6-dibromophenoxy)-N,N-dimethylethanamine] | less toxic than ZINEB | 7.4 ± 8.3% | 11.3 ± 9.1 µM | 4.2 | 134.8 µM | 6.3 ± 1.3% | 20.4 ± 1.2 µM | 4.4 ± 2.7% | 32 ± 8.1 µM | 199 µM | 4.7 | 126 µM | 11.2 | 6.8 ± 4.3% | 42.5 ± 16.9 µM | comparable to that of ZINEB | ≥ 85% | ≥ 65% | 0.7 ± 0.7% | 19.2 ± 2.1 µM | IS: LC50/EC50 (selectivity index), TC14 [11]: 12.45; LC50 (necessary concentration to kill 50% of the bacteria), TC14 [11]: 254.1 µM; IE % ([12]; 0.1 ppm): 87.08%; IE % ([12]; 0.3 ppm): 95.37%; IE % ([12]; 0.5 ppm): 95.89%; IE % ([12]; 2 ppm): 96.25%; IE % ([12]; 10 ppm): 96.03%; IS: LC50/EC50 (selectivity index), TC5 [13]: 4.8; CC50 [13]: 92.6 µM
CN(C)CCCOc1c(Br)cc(CCn2cc(-c3ccc(-c4cn(CCc5cc(Br)c(OCCCN(C)C)c(Br)c5)nn4)cc3)nn2)cc1Br [SA34, 3-(4-(2-(4-(4-(1-(4-(3-(dimethylamino)propoxy)-3,5-dibromophenethyl)-1H-1,2,3-triazol-4-yl)phenyl)-1H-1,2,3-triazol-1-yl)ethyl)-2,6-dibromophenoxy)-N,N-dimethylpropan-1-amine] | less toxic than ZINEB | 8.2 ± 3.5% | 1.5 ± 2.1 µM | 4.3 | 115.9 µM | 13 ± 7.7% | 13.1 ± 1 µM | 7 ± 3.12% | 27.2 ± 0.5 µM | 174 µM | 3.5 | 114 µM | 75.7 | 10.2 ± 3.1% | 50.5 ± 10.9 µM | comparable to that of ZINEB | ≥ 85% | ≥ 65% | 7.9 ± 7.3% | 4.6 ± 6.3 µM | IS: LC50/EC50 (selectivity index), TC14 [11]: 10.1; LC50 (necessary concentration to kill 50% of the bacteria), TC14 [11]: 132 µM; IE % ([12]; 0.1 ppm): 52.40%; IE % ([12]; 0.3 ppm): 70.39%; IE % ([12]; 0.5 ppm): 92.23%; IE % ([12]; 2 ppm): 96.25%; IE % ([12]; 10 ppm): 95.69%; IS: LC50/EC50 (selectivity index), TC5 [13]: 20.5; CC50 [13]: 94.3 µM
